Legend:
[1] = normal healthy individuals, 10 mg oral dose of EZE; cited from earlier work
[2] = Disposition of EZE and EZE-Gluc in plasma, bile and urine of control and MCD (NASH) rats, LC-MS/MS; type: in vivo, rat; settings: NASH animal model (MCD rats) vs control, oral EZE
Description: Ezetimibe was orally administered to control and MCD rats. Blood and bile were collected and EZE and ZE-Guc were measured by LC-MS/MS. […] The solid and open arrows indicate where NASH caused an increase and decrease, respectively, in the amount of compound in the biological fluid indicated.
Ezetimibe was intravenously administered to control and MCD rats. Blood and bile were collected and EZE and EZE-Guc were measured by LC-MS/MS. […] The solid arrows indicate where NASH caused an increase in the amount of compound in the biological fluid indicated.

[3] = EZE-Gluc in plasma and urine in NASH compared with healthy or steatotic livers; type: in vivo; settings: NASH vs healthy or steatotic livers
Description: Furthermore, the inventive technical features of the present invention contributed to a surprising result. A surprising and unexpected result can occur when patients are administered EZE.

Row | biliary elimination [2] | plasma retention [2] | increase in plasma and urine [3] [fold] | SMILES | average peak blood concentration [1] [ng/mL]
1 |  |  |  | O=C1[C@H](CC[C@H](O)c2ccc(F)cc2)[C@@H](c2ccc(O)cc2)N1c1ccc(F)cc1 [EZE, ezetimibe] | 4.5
2 | Decreased Biliary Elimination | Increased Plasma Retention | ≤ 100 | O=C(O)[C@H]1O[C@@H](Oc2ccc([C@@H]3[C@@H](CC[C@H](O)c4ccc(F)cc4)C(=O)N3c3ccc(F)cc3)cc2)[C@H](O)[C@@H](O)[C@@H]1O [EZE-Gluc, ezetimibe-glucuronide] | 92

— patent US20200393473A1, “EZETIMIBE METABOLITE AS A NON-INVASIVE BIOMARKER FOR NON-ALCOHOLIC STEATOHEPATITIS (NASH)” (ARIZONA BOARD OF REGENTS ON BEHALF OF THE UNIVERSITY OF …, priority 2018, published 2020)
